Measured values as given in ChEMBL document CHEMBL1158931, “Pseudosemiglabrin, a platelet aggregation inhibitor from tephrosia semiglabra” (J Nat Prod, 1990).
Calls of active or inactive are those of the source. The calls are words filed in the database; no cut-off is given here.

Experiments:
[1] = Antiplatelet aggregatory activity against U46619-induced human platelet aggregation at 45 ug/ml by turbidimetric method; assay type: functional
[2] = test system: Platelet; experiment: Antiplatelet aggregatory activity against adenosine diphosphate-induced human platelet aggregation at 44 ug/ml by turbidimetric method; assay type: functional, cell-based
[3] = Antiplatelet aggregatory activity against U46619-induced human platelet aggregation at 6.5 ug/ml by turbidimetric method; assay type: functional
[4] = test system: Platelet; experiment: Antiplatelet aggregatory activity against adenosine diphosphate-induced human platelet aggregation at 13 ug/ml by turbidimetric method; assay type: functional, cell-based
[5] = Antiplatelet aggregatory activity against U46619-induced human platelet aggregation by turbidimetric method; assay type: functional, cell-based

Row | Compound | Activity [1] | Activity [2] | Activity [3] | Activity [4] | IC50 [5]
1 | CC(=O)O[C@H]1[C@@H]2c3c(ccc4c(=O)cc(-c5ccccc5)oc34)O[C@@H]2OC1(C)C | 70% | inactive | – | – | –
2 | CC(=O)O[C@H]1[C@H]2c3c(ccc4c(=O)cc(-c5ccccc5)oc34)O[C@H]2OC1(C)C | – | – | 85% | inactive | 12.5 µM
